We go through three molecules from patent US20040167061A1, “Substantially homogeneous bio-affecting material having a pre-determined ratio of bioaffecting component to cell targeting component, the method for making such a material and the method of its use” (priority 2003, published 2004).

The test system of data set [1] is leukemic cells in peripheral blood. Conditions: cited from earlier work.
Data set [2] deals with human mesothelioma cells. The conditions noted are these: nude mice with (drug-resistant) human mesothelioma cells; compared to animals treated only with doxorubicin; cited from earlier work.
The test system of data set [3] is NADH-oxidase. The conditions noted are these: plasma membrane redox enzyme; cited from earlier work.
Data set [4] relates to metastatic lesions from a sarcoma. Conditions: treatment begun August 2000.
In data set [5] the test system is advanced ovarian cancer. As to the kind of experiment: unpublished randomized clinical study in advanced ovarian cancer. It counts as in vivo, human. Conditions: equivalent to 1 mg doxorubicin per day on days 15 through 19 of monthly cycles; time between diagnosis and randomization 18 months. As for the experimental part:
There is an unpublished clinical study of 23 patients with advanced ovarian cancer who were randomized into test (12 patients) and placebo (11 patients) groups. The test group received transferrin-doxorubicin conjugates equivalent to 1 mg doxorubicin per day on days 15 through 19 of monthly treatment cycles.

For data set [6], the system named is multi-drug resistant cells. The conditions noted are these: cited from earlier work.

Take “glutaraldehyde-prepared transferrin-doxorubicin conjugates”: the “decrease of number of leukemic cells in peripheral blood” value in data set [1] (7 patients, 1 mg/day iv for 5 days, within 10-days following therapy) is 86%. In addition, the extension of disease result in data set [1] (bone marrow biopsies before and after treatment) is “no extension of disease”. Besides, in data set [1] (seven acute leukemia patients, 1 mg/day intravenously for 5 days), the toxic effects result is recorded as “no toxic effects”. The “survival (prolonging life)” value in data set [2] is given as “significantly prolonging life”.
Take `COc1cccc2c1C(=O)c1c(O)c3c(c(O)c1C2=O)C[C@@](O)(C(=O)CO)C[C@@H]3O[C@H]1C[C@H](N)[C@H](O)[C@H](C)O1` [doxorubicin]: the “inhibition of NADH-oxidase” value in data set [3] is given as “efficient inhibitor”.
In the case of transferrin-doxorubicin conjugates, the “radiological evidence of tumor” value in data set [4] (by January) is recorded as “no radiological evidence of tumor”. In addition, the “metastatic lesions in the lungs” value in data set [4] (by November) was “substantially cleared of metastatic lesions”. The “Cox regression estimates of survival rates, test versus placebo” value in data set [5] is “significant difference”. Further, in data set [3], the “inhibition of NADH-oxidase” value is “inhibit”. In addition, in data set [6], the “killing of multi-drug resistant cells” value is on record as “effectively kill”.
